The values that follow come from patent publication US10294207B2, “Pyrazole derivatives as TNIK, IKKϵ and TBK1 inhibitor and pharmaceutical composition comprising same” (GREEN CROSS CORPORATION, priority 2015, dated 2019).

One test concerns the target T1, IKKε (Homo sapiens, UniProt Q14164).
T1 construct: purchased Invitrogen PR8031B
T1 sequence (Q14164 1-716): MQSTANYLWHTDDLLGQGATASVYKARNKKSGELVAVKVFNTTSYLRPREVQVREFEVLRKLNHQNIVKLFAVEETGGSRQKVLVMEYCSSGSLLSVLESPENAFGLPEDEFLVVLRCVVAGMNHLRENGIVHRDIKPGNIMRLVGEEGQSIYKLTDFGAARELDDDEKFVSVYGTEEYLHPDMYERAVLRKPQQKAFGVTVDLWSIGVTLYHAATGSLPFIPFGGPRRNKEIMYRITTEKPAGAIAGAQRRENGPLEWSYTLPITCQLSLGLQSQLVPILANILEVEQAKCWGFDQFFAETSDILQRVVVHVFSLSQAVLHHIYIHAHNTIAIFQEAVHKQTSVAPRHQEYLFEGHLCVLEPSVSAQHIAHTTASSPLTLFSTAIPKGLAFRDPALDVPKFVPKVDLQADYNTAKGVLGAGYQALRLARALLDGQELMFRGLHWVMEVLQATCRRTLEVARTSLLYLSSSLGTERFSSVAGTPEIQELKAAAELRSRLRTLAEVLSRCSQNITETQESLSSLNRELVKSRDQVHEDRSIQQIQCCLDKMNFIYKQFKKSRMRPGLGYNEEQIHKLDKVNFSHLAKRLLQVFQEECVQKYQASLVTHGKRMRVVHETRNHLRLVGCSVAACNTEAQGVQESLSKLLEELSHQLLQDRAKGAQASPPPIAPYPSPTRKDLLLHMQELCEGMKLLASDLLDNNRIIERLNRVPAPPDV
Briefly: IKKε inhibition, ADP-Glo Kinase Assay. It counts as biochemical. Conditions: luminometer. The protocol:
(§1) Inhibition activities on TNIK, IKKε and TBK1 were evaluated using the compounds of Examples 1 to 254.
(§2) The inhibition activities on TNIK, IKKε and TBK1 were measured by a luminometer, TNIK/IKKε/TBK1 Kinase Enzyme System (Promega, Ca# V4158; Invitrogen, PR8031B, Promega, Ca# V3991) and ADP-Glo Kinase Assay using ADP-Glo™ Kinase Analysis Kit (Promega, Ca# V9101) and a kinase reaction buffer [40 mM Tris(pH 7.5), 20 mM MgCl2, 0.1 mg/mL BSA] in accordance with the manufacturer's protocol.

The target of a further test is T2, TBK1 (Homo sapiens, UniProt Q9UHD2).
T2 construct: purchased Promega V3991
T2 sequence (Q9UHD2 1-729): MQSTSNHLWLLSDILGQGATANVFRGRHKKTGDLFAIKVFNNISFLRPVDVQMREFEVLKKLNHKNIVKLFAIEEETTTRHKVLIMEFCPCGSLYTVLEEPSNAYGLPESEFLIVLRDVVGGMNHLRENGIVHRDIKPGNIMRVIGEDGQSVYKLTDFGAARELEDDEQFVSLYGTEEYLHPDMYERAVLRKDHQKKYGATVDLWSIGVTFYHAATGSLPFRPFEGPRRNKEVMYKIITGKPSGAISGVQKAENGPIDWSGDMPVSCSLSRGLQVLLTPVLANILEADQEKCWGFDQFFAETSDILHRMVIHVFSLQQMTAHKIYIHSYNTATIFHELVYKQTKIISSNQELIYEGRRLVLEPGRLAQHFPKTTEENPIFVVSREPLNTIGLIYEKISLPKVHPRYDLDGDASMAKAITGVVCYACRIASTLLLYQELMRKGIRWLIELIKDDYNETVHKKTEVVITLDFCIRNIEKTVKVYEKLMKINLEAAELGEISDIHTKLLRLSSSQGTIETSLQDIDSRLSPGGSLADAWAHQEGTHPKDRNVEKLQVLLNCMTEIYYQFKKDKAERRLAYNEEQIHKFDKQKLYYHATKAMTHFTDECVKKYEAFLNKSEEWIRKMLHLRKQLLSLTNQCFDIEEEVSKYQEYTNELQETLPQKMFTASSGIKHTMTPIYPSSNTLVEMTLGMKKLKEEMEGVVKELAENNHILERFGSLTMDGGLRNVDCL
In words: TBK1 inhibition, ADP-Glo Kinase Assay. Type of test: biochemical. To be noted: luminometer. How it is done: as §1, §2

The term IC50 denotes the concentration that gives 50% inhibition. High values mean weaker potency, low ones greater potency. Consider `CN(C)CCNc1ccc(C(=O)Nc2n[nH]c3ccc(C(=O)NCc4cccs4)cc23)cc1` [Example 158, 3-(4-((2-(Dimethylamino)ethyl)amino)benzamido)-N-(thiophen-2-ylmethyl)-1H-indazole-5-carboxamide], for which the IC50 on IKKε was determined as 0.096 µM; at TBK1 it was 0.0087 µM.

With `C[C@H]1CN(c2ccc(C(=O)Nc3n[nH]c4ccc(C(=O)NCc5cccs5)cc34)cc2)CCN1` [Example 117, (S)-3-(4-(3-Methylpiperazin-1-yl)benzamido)-N-(thiophen-2-ylmethyl)-1H-indazole-5-carboxamide 2,2,2-trifluoroacetate], the IC50 was found to be 0.071 µM on IKKε and 0.0033 µM at TBK1.

With `COCCNc1ccc(C(=O)Nc2n[nH]c3ccc(C(=O)NCc4cccs4)cc23)cc1` [Example 150, 3-(4-((2-methoxyethyl)amino)benzamido)-N-(thiophen-2-ylmethyl)-1H-indazole-5-carboxamide], the IC50 amounted to 0.049 µM against IKKε and 0.0072 µM against TBK1.

With `CC(NC(=O)c1ccc2[nH]nc(NC(=O)c3ccc(N4CCNCC4)cc3)c2c1)c1ccccc1` (stereo not shown) [Example 181, N-(1-Phenylethyl)-3-(4-(piperazin-1-yl)benzamido)-1H-indazole-5-carboxamide 2,2,2-trifluoroacetate], the IC50 against IKKε was determined as 0.022 µM; against TBK1, 0.0039 µM.

Consider `CN1CCN(c2ccc(C(=O)Nc3n[nH]c4ccc(C(=O)NCc5cscn5)cc34)cc2)CC1` [Example 174, 3-(4-(4-Methylpiperazin-1-yl)benzamido)-N-(thiazol-4-ylmethyl)-1H-indazole-5-carboxamide], for which the IC50 against IKKε worked out at 0.54 µM; against TBK1, 0.045 µM.

As to `CC(C)CCNc1ccc(C(=O)Nc2n[nH]c3ccc(C(=O)NCc4cccs4)cc23)cc1` [Example 159, 3-(4-(Isopentylamino)benzamido)-N-(thiophen-2-ylmethyl)-1H-indazole-5-carboxamide], the results for the IC50 on IKKε and against TBK1 were 0.31 µM and 0.033 µM, respectively.

As to `O=C(NCc1cccnc1)c1ccc2[nH]nc(NC(=O)c3ccc(N4CCOCC4)cc3)c2c1` [Example 56, 3-(4-Morpholinobenzamido)-N-(pyridin-3-ylmethyl)-1H-indazole-5-carboxamide 2,2,2-trifluoroacetate], the IC50 at IKKε worked out at 0.1 µM; on TBK1 it was 0.0033 µM.

On to `CN1CCN(c2ccc(C(=O)Nc3n[nH]c4ccc(C(=O)NCc5ccccn5)cc34)cc2)CC1` [Example 85, 3-(4-(4-Methylpiperazin-1-yl)benzamido)-N-(pyridin-2-ylmethyl)-1H-indazole-5-carboxamide bis(2,2,2-trifluoroacetate)], for which the IC50 against IKKε came to 1.63 µM; at TBK1 it was 0.16 µM.

As to `CCC(NC(=O)c1ccc2[nH]nc(NC(=O)c3ccc(N4CCOCC4)cc3)c2c1)c1ccccc1` (stereo not shown) [Example 188, 3-(4-Morpholinobenzamido)-N-(1-phenylpropyl)-1H-indazole-5-carboxamide], the IC50 against IKKε is 0.017 µM; at TBK1, 0.0032 µM.

Consider `O=C(Nc1n[nH]c2ccc(C(=O)NC(c3ccccn3)C3CC3)cc12)c1ccc(N2CCOCC2)cc1` (stereo not shown) [Example 139, N-(Cyclopropyl(pyridin-2-yl)methyl)-3-(4-morpholinobenzamido)-1H-indazole-5-carboxamide], for which the IC50 against IKKε worked out at 0.34 µM; against TBK1 it was 0.1 µM.

With `CC(C)CCNC(=O)c1ccc2[nH]nc(NC(=O)c3ccc(N4CCN(C)CC4)cc3)c2c1` [Example 114, N-Isopentyl-3-(4-(4-methylpiperazin-1-yl)benzamido)-1H-indazole-5-carboxamide 2,2,2-trifluoroacetate], the values for the IC50 at IKKε and against TBK1 were 0.41 µM and 0.082 µM, respectively.

For the compound `CN1CCN(c2ccc(C(=O)Nc3n[nH]c4ccc(C(=O)NC5(c6cccs6)CC5)cc34)cc2)CC1` [Example 49, 3-(4-(4-Methylpiperazin-1-yl)benzamido)-N-(1-(thiophen-2-yl)cyclopropyl)-1H-indazole-5-carboxamide], the IC50 amounted to 0.0034 µM at IKKε and 0.0025 µM at TBK1.

In the case of `O=C(NCc1cccs1)c1ccc2[nH]nc(NC(=O)c3ccc(F)cc3F)c2c1` [Example 35, 3-(2,4-Difluorobenzamido)-N-(thiophen-2-ylmethyl)-1H-indazole-5-carboxamide], the IC50 came to 0.93 µM on IKKε and 0.28 µM against TBK1.

With `CCC(NC(=O)c1ccc2[nH]nc(NC(=O)c3ccc(N4CCNCC4)cc3)c2c1)c1ccccc1` (stereo not shown) [Example 41, N-(1-Phenylpropyl)-3-(4-(piperazin-1-yl)benzamido)-1H-indazole-5-carboxamide], the IC50 was determined as 0.047 µM against IKKε and 0.0039 µM against TBK1.

`CC(NC(=O)c1ccc2[nH]nc(NC(=O)c3ccc(N4CCN(C)CC4)cc3)c2c1)c1ccccn1` (stereo not shown) [Example 128, 3-(4-(4-Methylpiperazin-1-yl)benzamido)-N-(1-(pyridin-2-yl)ethyl)-1H-indazole-5-carboxamide]: the IC50 against IKKε is 0.11 µM; on TBK1, 0.028 µM.

For `CN1CCN(c2ccc(C(=O)Nc3n[nH]c4ccc(C(=O)NC(c5cccs5)C5CC5)cc34)cc2)CC1` (stereo not shown) [Example 125, N-(Cyclopropyl(thiophen-2-yl)methyl)-3-(4-(4-methylpiperazin-1-yl)benzamido)-1H-indazole-5-carboxamide], the IC50 against IKKε was 0.037 µM; against TBK1, 0.026 µM.

`CCCCNC(=O)c1ccc2[nH]nc(NC(=O)c3ccc(N4CCN(C)CC4)cc3)c2c1` [Example 113, N-Butyl-3-(4-(4-methylpiperazin-1-yl)benzamido)-1H-indazole-5-carboxamide 2,2,2-trifluoroacetate]: the figures for the IC50 on IKKε and at TBK1 were 0.18 µM and 0.018 µM, respectively.

Turning to `CN1CCN(c2ccc(C(=O)Nc3n[nH]c4ccc(C(=O)NC(c5cccs5)C(F)(F)F)cc34)cc2)CC1` (stereo not shown) [Example 135, 3-(4-(4-Methylpiperazin-1-yl)benzamido)-N-(2,2,2-trifluoro-1-(thiophen-2-yl)ethyl)-1H-indazole-5-carboxamide], the IC50 was determined as 0.038 µM against IKKε and 0.0085 µM against TBK1.

As for `O=C(Nc1n[nH]c2ccc(CNCc3cccs3)cc12)c1ccc(N2CCOCC2)cc1` [Example 123], the IC50 was found to be 4.47 µM against IKKε and 0.66 µM at TBK1.

Turning to `CC(C)(NC(=O)c1ccc2[nH]nc(NC(=O)c3ccc(N4CCOCC4)cc3)c2c1)c1ccccc1` [Example 62, 3-(4-Morpholinobenzamido)-N-(2-phenylpropan-2-yl)-1H-indazole-5-carboxamide], the 50% inhibitory concentration (IC50) turned out to be 0.032 µM against IKKε and 0.011 µM against TBK1.

Turning to `CC(C)(NC(=O)c1ccc2[nH]nc(NC(=O)c3ccc(F)cc3)c2c1)c1cccs1` [Example 215, 3-(4-Fluorobenzamido)-N-(2-(thiophen-2-yl)propan-2-yl)-1H-indazole-5-carboxamide], the values for the IC50 against IKKε and on TBK1 were 0.32 µM and 0.021 µM, respectively.

Take `CN1CCN(c2ccc(C(=O)Nc3n[nH]c4ccc(C(=O)NCc5cccc(F)c5)cc34)cc2)CC1` [Example 195, N-(3-Fluorobenzyl)-3-(4-(4-methylpiperazin-1-yl)benzamido)-1H-indazole-5-carboxamide]: the IC50 at IKKε was determined as 0.05 µM; against TBK1, 0.0072 µM.

Regarding `CCC(NC(=O)c1ccc2[nH]nc(NC(=O)c3ccc(N4CCN[C@H](C)C4)cc3)c2c1)c1cccs1` (stereo partly drawn) [Example 98, 3-(4-((R)-3-Methylpiperazin-1-yl)benzamido)-N-(1-(thiophen-2-yl)propyl)-1H-indazole-5-carboxamide 2,2,2-trifluoroacetate], the IC50 stood at 0.023 µM against IKKε and 0.003 µM against TBK1.
